Biological target: AD-tau fibrils seeding HEK293 cells expressing tau-K18 P301S-eYFP (Homo sapiens, UniProt P10636)
Assay: Tau biosensor cell seeding assay
Format: cell-based
Design: dose or concentration left out as unconfirmed
Conditions: screen; final inhibitor concentration on the biosensor cells
Procedure: Disaggregating molecules that produce active seeds are undesirable for therapy and are excluded from further study. HEK293T cells expressing CFP- or YFP-fused tau are transduced with exogenous AD tau fibrils.
Inhibitors were dissolved in DMSO. […] The number of seeded aggregates was determined by imaging the entire well of a 96-well plate in triplicate using a Celigo Image Cytometer (Nexcelom) in the YFP channel. […] The number of aggregates was normalized to the confluence of each well, and dose-response plots were generated by calculating the average and standard deviations from triplicate measurements.

Chain of AD-tau fibrils seeding HEK293 cells expressing tau-K18 P301S-eYFP (P10636 623-695 limits assumed, stated change not applied): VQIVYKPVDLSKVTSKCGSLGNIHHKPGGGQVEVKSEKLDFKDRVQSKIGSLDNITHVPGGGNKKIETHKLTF

O=C(O[C@@H]1Cc2c(O)cc(O)cc2O[C@@H]1c1cc(O)c(O)c(O)c1)c1cc(O)c(O)c(O)c1 [EGCG, epigallocatechin gallate]
inhibition of seeding in tau biosensor cells (in words): prevents the formation of any seeds

Source: patent US20260021092A1, “STRUCTURE-BASED DESIGN OF A NOVEL CLASS OF DRUGS FOR NEURODEGENERATIVE DISEASE” (The Regents of the University of California, priority 2022, published 2026)
